Reference: patent publication US20220409617A1, “Drug Formulations and Methods of Treatment for Metabolic Disorders” (The Regents of the University of California, priority 2019, published 2022)

Columns and labels:
[1] = test system: mouse embryonic fibroblasts (MEFs); experiment: Ceramide-induced (C16:0 CER, C2-ceramide) mitochondrial fragmentation; format: cell-based; conditions: MEFs, 893 5 μM
Protocol: 3T3-L1 cells were maintained in DMEM with 10% FBS and 1% penicillin-streptomycin until induced to differentiate. 3T3-L1 pre-adipocytes were differentiated as described in (M. P. Valley, et al., Anal. Biochem. 505: 43-50, 2016, the disclosure of which is incorporated herein by reference) with slight modifications. Briefly, pre-adipocytes were grown to confluence. After 2 d, cells were induced with maintenance media containing 500 μM IBMX (15879, Sigma-Aldrich, St. Louis, Mo.), 1 μM dexamethasone (D4902, Sigma-Aldrich), 5 μg/mL bovine insulin (10516, Sigma-Aldrich), and 5 μM troglitazone (50-115-0786, ApexBio). Media was changed every 2-3 d for 7 d. On day 7 post-induction, media was changed to maintenance media+5 μg/mL bovine insulin. On day 9 post-induction, media was changed to maintenance media. Mature adipocytes were used 12-14 d post-induction for all experiments. LSL-KrasG12D mouse embryonic fibroblasts (MEFs) with and without Cre-mediated deletion of the STOP cassette were obtained from David Tuveson (Cold Spring Harbor Laboratory, Cold Spring Harbor N.Y., USA) in 2000. p53^flox/flox MEFs were derived in house (2015) from C57BL/6 mice using standard techniques and immortalized by transient expression of Cre recombinase and deletion of p53. MEFs were cultured and maintained in DMEM with 10% FBS and 1% penicillin-streptomycin. A549 cells were cultured in DMEM with 10% FBS, 1% penicillin-streptomycin and 1% sodium pyruvate. Stock solution of palmitic acid (ACROS Organics, cat # AC129702500) was prepared at 100 mM in ethanol. Palmitate (250 μM) was conjugated to 1% (w/v) fatty-acid free bovine serum albumin (Sigma, A8806) in DMEM at 37° C. for 20 min. For all immunofluorescence assays, 8,000 MEFs were seeded into 8-chamber slides (Cellvis, cat # C8-1.5H-N) 12-16 h before treatment. Cells were pre-treated with sphingolipid-like compound 893 (5 μM in water), myriocin (10 μM in methanol), fumonisin-B1 (30 μM in DMSO), or celastrol (500 nM in DMSO) for 3 h followed by a 3 h treatment with BSA-conjugated palmitate mixture or BSA alone. Where cells were treated with C2-ceramide (50 μM in DMSO) or C16:0 ceramide (100 μM in ethanol) for 3 h, cells were pre-treated with sphingolipid-like compound 893 for 1-3 h as indicated, mdivi-1 (50 μM in DMSO) for 1 h or 24 h, M1 (5 μM in DMSO) for 24 h, mdivi-1 and M1 together for 24 h, leflunomide (50 μM in methanol) for 1 h or 24 h, or with P110 (1 μM in water) for 1 h or 12 h. LSL or KRAS^G12D MEFs were treated with sphingolipid-like compound 893 (5 μM) for 6 h prior to fixation.
MEFs were washed twice with PBS and fixed with 4% paraformaldehyde for 10 min at RT. Cells were permeabilized with 0.3% Triton X-100 in blocking buffer containing 10% fetal bovine serum for 20 min at 37° C. followed by overnight incubation with mouse anti-citrate synthase (sc-390693, Santa Cruz Biotechnology; dilution, 1:200) or rabbit-anti-DRP1 at 1:100 (#8570, Cell Signaling Technology) at 4° C. Cells were then washed twice with PBS and incubated with AlexaFluor 488 goat anti-mouse (A28175, Invitrogen) or AlexaFluor 594 donkey anti-rabbit (A32754, Invitrogen) secondary antibodies at RT followed by 5 min incubation with 1 μg/ml DAPI and 2 washes in PBS. For NADH autofluorescence studies, mice were gavaged with vehicle or 120 mg/kg sphingolipid-like compound 893 at ZT8.5 (4-10.5 h before sacrifice between ZT12.5 and ZT18). Post sacrifice, livers were excised, washed 3× with PBS, placed in DMEM supplemented with 10% FBS and 1% penicillin-streptomycin, and immediately imaged. NADH/NADPH autofluorescence was detected with 740 nm excitation and 450±50 nm detectors using a Mai Tai two-photon laser. Fluorescence microscopy was performed on a Zeiss LSM 780 confocal using a 63× oil objective with a […] numerical aperture (NA) or using a Nikon TE2000-S inverted epifluorescence microscope with a 100× oil objective (1.3 NA) and a Photometrics CoolSNAP ES2 monochrome CCD camera. […]

[2] = test system: ob/ob mice; experiment: Leptin-deficient ob/ob mice: food intake, body weight, OGTT; format: in vivo, mouse
Protocol: To more rigorously assess the role of leptin in the anti-obesogenic effects of sphingolipid-like compound 893, the response of leptin-deficient ob/ob mice to sphingolipid-like compound 893 was measured. As expected, ob/ob mice were hyperphagic and became obese on the standard chow diet provided by University Lab Animal Resources (16% kcal from fat). Ob/ob animals were used in experiments once they attained an equivalent body weight to C57BL/6J mice fed the HFD for 24 weeks (FIG. 36).
Mice were fasted for 6 h prior to blood glucose testing at ZT10. When sphingolipid-like compound 893 treatment was combined with an OGTT, mice were treated at ZT6. Once baseline fasting blood glucose was determined using a handheld blood glucose meter (Prodigy Diabetes Care, Charlotte, N.C.) and a drop of blood collected from a tail vein nick, mice were gavaged with an oral glucose solution (20% w/v in water, 2 g/kg bodyweight) and blood glucose measured in a drop of tail vein blood at 0, 15, 30, 60 and 120 min. The area under the curve was determined using Graphpad Prism software.
Mice were singly housed and allowed to acclimate for 72 h before food intake was monitored. Food consumption was determined by monitoring the weight of food in the hopper. Initial food and body weight measurements were taken at ZT9 and final measurements were taken 16 h later to capture the active period where most consumption occurred. Home cage feeding studies were performed with C57BL/6J mice maintained on a HFD for 24 weeks (33 weeks of age), or ob/ob mice at 8 weeks of age. Mice received vehicle or 120 mg/kg sphingolipid-like compound 893 by gavage at ZT8.5. For experiments involving leptin, 18 week old, SD fed (16% kcal from fat, 2020×, Envigo) C57BL/6J mice received vehicle or 120 mg/kg sphingolipid-like compound 893 by gavage at ZT8.5. At ZT11.5, vehicle (20 mM Tris-Cl, pH 8.0) or 2 mg/kg recombinant mouse leptin (498-OB, R&D Systems, Minneapolis, Minn.) was delivered by intraperitoneal injection. The same 8 mice were used for all treatments following a 48 h washout period, and treatments were administered in the following order: vehicle, sphingolipid-like compound 893, leptin, and leptin+sphingolipid-like compound 893. All data collected from one mouse was excluded due to inadvertent pharyngeal administration during gavage reducing the n from 8 to 7 (FIG. 5a-d). […] One ob/ob mouse died during Echo MRI for unknown reasons after 6 d of treatment with sphingolipid-like compound 893; data from this mouse was analyzed prior to death.

CCCCCCCCc1ccc([C@H]2CCN[C@@H]2CO)cc1.Cl [compound 893]
Pre-treatment time after which the compound was effective against C16:0 ceramide-induced fragmentation [1]: 1 h | Protection from ceramide-induced mitochondrial fragmentation ([1]; C16:0 CER 100 μM or C2-ceramide 50 μM 3 h, mdivi-1 50 μM, M1 5 μM, leflunomide 50 μM, P110 1 μM): blocked ceramide-induced mitochondrial fragmentation | Cumulative food intake, repeated dosing ([2]; 120 mg/kg Mon/Wed/Fri for 2 weeks): only a modest decrease in cumulative food intake | Fasting hyperglycemia and glucose tolerance ([2]; 120 mg/kg Mon/Wed/Fri, OGTT at 14 d): failed to correct fasting hyperglycemia or restore glucose tolerance | Food intake after a single dose ([2]; single oral dose 120 mg/kg): decreased food intake | Body weight gain ([2]; six doses of 120 mg/kg over 2 weeks): 5%
